Source: patent US7767659B2, “Synthesis of naturally occurring ecteinascidins and related compounds” (Pharma Mar, S.A., priority 2002, dated 2010)
Where two headings read alike, the source gives them in different places.

What was measured:
HeLa = test: Inhibition of cells growth by colorimetric assay (SRB); details: Homo sapiens, HeLa, 48 h; for GI50: read-out: HELA GI50; for CC50: read-out: HELA LC50; for IC (TGI): read-out: HELA TGI
Outline: (§1)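 Colorimetric SRB read (490 nm) on triplicate wells after 48 h at 37 °C, 5% CO2. Dose range 10 to 10^−8 μg/ml; 5×10^3 cells/well pre-attached 18 h.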

LoVo-Dox = test: as above; details: Homo sapiens, 48 h; for GI50: read-out: LOVO-DOX GI50; for CC50: read-out: LOVO-DOX LC50; for IC (TGI): read-out: LOVO-DOX TGI
Outline: as §1

DU-145 = test: as above; details: Homo sapiens, DU-145, 48 h
Outline: as §1

K-562 = test: as above; details: Homo sapiens, K562, 48 h; for GI50: read-out: K562 GI50; for CC50: read-out: K562 LC50; for IC (TGI): read-out: K562 TGI
Outline: as §1

SK-MEL-28 = test: as above; details: Homo sapiens, SK-MEL-28, 48 h
Outline: as §1

PANC-1 = test: as above; details: Homo sapiens, PANC-1, 48 h; for GI50: read-out: PANC-1 GI50; for CC50: read-out: PANC-1 LC50; for IC (TGI): read-out: PANC-1 TGI
Outline: as §1

HeLa-APL = test: as above; details: Homo sapiens, 48 h; for GI50: read-out: HELA-APL GI50; for CC50: read-out: HELA-APL LC50; for IC (TGI): read-out: HELA-APL TGI
Outline: as §1

IGROV-ET = test: as above; details: Homo sapiens, 48 h; for GI50: read-out: IGROV-ET GI50; for CC50: read-out: IGROV-ET LC50; for IC (TGI): read-out: IGROV-ET TGI
Outline: as §1

SK-BR-3 = test: as above; details: Homo sapiens, SK-BR-3, 48 h; for GI50: read-out: SK-BR3 GI50; for CC50: read-out: SK-BR3 LC50; for IC (TGI): read-out: SK-BR3 TGI
Outline: as §1

LNCaP = test: as above; details: Homo sapiens, LNCaP, 48 h
Outline: as §1

IGROV-1 = test: as above; details: Homo sapiens, IGROV-1, 48 h; for GI50: read-out: IGROV GI50; for CC50: read-out: IGROV LC50; for IC (TGI): read-out: IGROV TGI
Outline: as §1

A-549 = test: cells; details: Homo sapiens, A549, 48 h
Outline: as §1

LoVo = test: cells; details: Homo sapiens, LoVo, 48 h; for GI50: read-out: LOVO GI50; for CC50: read-out: LOVO LC50; for IC (TGI): read-out: LOVO TGI
Outline: as §1

HT-29 = test: cells; details: Homo sapiens, HT-29, 48 h
Outline: as §1

C=CCN1[C@@H]2c3c(cc(C)c(OC)c3O)C[C@H]1[C@H](C#N)N1C2[C@@H]2SC[C@]3(NCCc4c3[nH]c3ccc(O)cc43)C(=O)OC[C@H]1c1c3c(c(C)c(OC(C)=O)c12)OCO3 (stereo partly drawn) [compound 57]
GI50 (HeLa): 26.8 nM
CC50 (HeLa): 112 nM
IC (TGI) (HeLa): 56.4 nM
GI50 (LoVo-Dox): 774 nM
CC50 (LoVo-Dox): 12200 nM
IC (TGI) (LoVo-Dox): 6220 nM
GI50 (DU-145; read-out: DU145 GI50): 52.1 nM
CC50 (DU-145; read-out: DU145 LC50): 12200 nM
IC (TGI) (DU-145; read-out: DU145 TGI): 12200 nM
GI50 (K-562): 8.82 nM
CC50 (K-562): 12200 nM
IC (TGI) (K-562): 88.8 nM
GI50 (SK-MEL-28; read-out: MEL-28 GI50): 29.3 nM
CC50 (SK-MEL-28; read-out: MEL-28 LC50): 106 nM
IC (TGI) (SK-MEL-28; read-out: MEL-28 TGI): 55.6 nM
GI50 (PANC-1): 52.9 nM
CC50 (PANC-1): 12200 nM
IC (TGI) (PANC-1): 1340 nM
GI50 (HeLa-APL): 22.3 nM
CC50 (HeLa-APL): 115 nM
IC (TGI) (HeLa-APL): 50.5 nM
GI50 (IGROV-ET): 252 nM
CC50 (IGROV-ET): 1170 nM
IC (TGI) (IGROV-ET): 544 nM
GI50 (SK-BR-3): 6.42 nM
CC50 (SK-BR-3): 382 nM
IC (TGI) (SK-BR-3): 31.8 nM
GI50 (LNCaP; read-out: LNCAP GI50): 15.1 nM
CC50 (LNCaP; read-out: LNCAP LC50): 69.3 nM
IC (TGI) (LNCaP; read-out: LNCAP TGI): 32.3 nM
GI50 (IGROV-1): 28.8 nM
CC50 (IGROV-1): 6480 nM
IC (TGI) (IGROV-1): 66 nM
GI50 (A-549; read-out: A549 GI50): 37.4 nM
CC50 (A-549; read-out: A549 LC50): 1500 nM
IC (TGI) (A-549; read-out: A549 TGI): 101 nM
GI50 (LoVo): 85.9 nM
CC50 (LoVo): 877 nM
IC (TGI) (LoVo): 274 nM
GI50 (HT-29; read-out: HT29 GI50): 44.6 nM
CC50 (HT-29; read-out: HT29 LC50): 12200 nM
IC (TGI) (HT-29; read-out: HT29 TGI): 4380 nM

COC1=C(C)C(=O)C2=C(C1=O)C1C3[C@@H]4SCC(=O)C(=O)OC[C@@H](c5c6c(c(C)c(OC(C)=O)c54)OCO6)N3[C@@H](O)[C@H](C2)N1C (stereo partly drawn) [Et-594-quinone]
GI50 (HeLa): 343 nM
CC50 (HeLa): 1120 nM
IC (TGI) (HeLa): 620 nM
GI50 (LoVo-Dox): 6270 nM
CC50 (LoVo-Dox): 16300 nM
IC (TGI) (LoVo-Dox): 13100 nM
GI50 (DU-145; read-out: DU145 GI50): 1990 nM
CC50 (DU-145; read-out: DU145 LC50): 14600 nM
IC (TGI) (DU-145; read-out: DU145 TGI): 5390 nM
GI50 (K-562): 137 nM
CC50 (K-562): 1620 nM
IC (TGI) (K-562): 478 nM
GI50 (SK-MEL-28; read-out: MEL-28 GI50): 413 nM
CC50 (SK-MEL-28; read-out: MEL-28 LC50): 1320 nM
IC (TGI) (SK-MEL-28; read-out: MEL-28 TGI): 738 nM
GI50 (PANC-1): 1580 nM
CC50 (PANC-1): 14900 nM
IC (TGI) (PANC-1): 4860 nM
GI50 (HeLa-APL): 398 nM
CC50 (HeLa-APL): 1140 nM
IC (TGI) (HeLa-APL): 674 nM
GI50 (IGROV-ET): 4370 nM
CC50 (IGROV-ET): 16300 nM
IC (TGI) (IGROV-ET): 9110 nM
GI50 (SK-BR-3): 302 nM
CC50 (SK-BR-3): 1160 nM
IC (TGI) (SK-BR-3): 593 nM
GI50 (LNCaP; read-out: LNCAP GI50): 274 nM
CC50 (LNCaP; read-out: LNCAP LC50): 901 nM
IC (TGI) (LNCaP; read-out: LNCAP TGI): 498 nM
GI50 (IGROV-1): 452 nM
CC50 (IGROV-1): 3640 nM
IC (TGI) (IGROV-1): 958 nM
GI50 (A-549; read-out: A549 GI50): 2350 nM
CC50 (A-549; read-out: A549 LC50): 10300 nM
IC (TGI) (A-549; read-out: A549 TGI): 4910 nM
GI50 (LoVo): 759 nM
CC50 (LoVo): 16300 nM
IC (TGI) (LoVo): 2910 nM
GI50 (HT-29; read-out: HT29 GI50): 653 nM
CC50 (HT-29; read-out: HT29 LC50): 16300 nM
IC (TGI) (HT-29; read-out: HT29 TGI): 1710 nM

COc1c(C)cc2c(c1OC(=O)/C=C/c1ccccc1)[C@H]1N[C@@H](C2)[C@H](C#N)N2C1[C@@H]1SCC(NC(=O)C(F)(F)F)C(=O)OC[C@H]2c2c3c(c(C)c(OC(C)=O)c21)OCO3 (stereo partly drawn) [compound 34]
GI50 (HeLa): 33.5 nM
CC50 (HeLa): 116 nM
IC (TGI) (HeLa): 62.4 nM
GI50 (LoVo-Dox): 140 nM
CC50 (LoVo-Dox): 12000 nM
IC (TGI) (LoVo-Dox): 410 nM
GI50 (DU-145; read-out: GI50 DU145): 51.1 nM
CC50 (DU-145; read-out: LC50 DU145): 53.7 nM
IC (TGI) (DU-145; read-out: TGI DU145): 98.7 nM
GI50 (K-562): 16.2 nM
CC50 (K-562): 146 nM
IC (TGI) (K-562): 45 nM
GI50 (SK-MEL-28; read-out: GI50 MEL-28): 32.7 nM
CC50 (SK-MEL-28; read-out: LC50 MEL-28): 111 nM
IC (TGI) (SK-MEL-28; read-out: TGI MEL-28): 60.3 nM
GI50 (PANC-1): 51.1 nM
CC50 (PANC-1): 841 nM
IC (TGI) (PANC-1): 123 nM
GI50 (HeLa-APL): 33.9 nM
CC50 (HeLa-APL): 108 nM
IC (TGI) (HeLa-APL): 60.5 nM
GI50 (IGROV-ET): 89.5 nM
CC50 (IGROV-ET): 860 nM
IC (TGI) (IGROV-ET): 262 nM
GI50 (SK-BR-3): 12.7 nM
CC50 (SK-BR-3): 626 nM
IC (TGI) (SK-BR-3): 70.1 nM
GI50 (LNCaP; read-out: GI50 LNCAP): 22 nM
CC50 (LNCaP; read-out: LC50 LNCAP): 147 nM
IC (TGI) (LNCaP; read-out: TGI LNCAP): 52.1 nM
GI50 (IGROV-1): 29.2 nM
CC50 (IGROV-1): 117 nM
IC (TGI) (IGROV-1): 58.3 nM
GI50 (A-549; read-out: GI50 A549): 55.3 nM
CC50 (A-549; read-out: LC50 A549): 611 nM
IC (TGI) (A-549; read-out: TGI A549): 184 nM
GI50 (LoVo): 28.7 nM
CC50 (LoVo): 98.6 nM
IC (TGI) (LoVo): 53.2 nM
GI50 (HT-29; read-out: GI50 HT29): 62 nM
CC50 (HT-29; read-out: LC50 HT29): 1640 nM
IC (TGI) (HT-29; read-out: TGI HT29): 165 nM
